Measured values taken from ChEMBL document CHEMBL1795272, “Rhamnetin production based on the rational design of the poplar O-methyltransferase enzyme and its biological activities” (Bioorg Med Chem Lett, 2011).
Activity calls are given as the source filed them. The calls are words filed in the database; no cut-off is given here.

Legend:
[1] = test system: MDA-MB-231; assay: Increase in c-Fos protein expression in human MDA-MB-231 cells at 20 uM within 30 mins by Western blot analysis; assay type: functional, cell-based
[2] = test system: MDA-MB-231; assay: Increase in Egr-1 protein expression in human MDA-MB-231 cells at 20 uM within 30 mins by Western blot analysis; assay type: functional, cell-based
[3] = test system: MDA-MB-231; assay: Effect on p38 kinase protein level in human MDA-MB-231 cells at 20 uM up to 120 mins by Western blot analysis; assay type: functional, cell-based
[4] = test system: MDA-MB-231; assay: Effect on JNK2 protein level in human MDA-MB-231 cells at 20 uM up to 120 mins by Western blot analysis; assay type: functional, cell-based
[5] = test system: MDA-MB-231; assay: Effect on JNK1 protein level in human MDA-MB-231 cells at 20 uM up to 120 mins by Western blot analysis; assay type: functional, cell-based
[6] = test system: MDA-MB-231; assay: Effect on ERK2 protein level in human MDA-MB-231 cells at 20 uM up to 120 mins by Western blot analysis; assay type: functional, cell-based
[7] = test system: MDA-MB-231; assay: Effect on ERK1 protein level in human MDA-MB-231 cells at 20 uM up to 120 mins by Western blot analysis; assay type: functional, cell-based
[8] = molecular target: MAP kinase p38 (Homo sapiens) (UniProt O15264+Q15759+Q16539+P53778); assay: Increase in p38 kinase phosphorylation in human MDA-MB-231 cells at 20 uM by Western blot analysis; assay type: cell-based; details: TDE = time-dependent effect
[9] = molecular target: Mitogen-activated protein kinase 9 (Homo sapiens) (UniProt P45984); assay: Increase in JNK2 phosphorylation in human MDA-MB-231 cells at 20 uM by Western blot analysis; assay type: cell-based; details: TDE = time-dependent effect
[10] = molecular target: Mitogen-activated protein kinase 1 (Homo sapiens) (UniProt P28482); assay: Increase in ERK2 phosphorylation in human MDA-MB-231 cells at 20 uM by Western blot analysis; assay type: cell-based; details: TDE = time-dependent effect
[11] = molecular target: Mitogen-activated protein kinase 8 (Homo sapiens) (UniProt P45983); assay: Increase in JNK1 phosphorylation in human MDA-MB-231 cells at 20 uM by Western blot analysis; assay type: cell-based; details: TDE = time-dependent effect
[12] = molecular target: Mitogen-activated protein kinase 3 (Homo sapiens) (UniProt P27361); assay: Increase in ERK1 phosphorylation in human MDA-MB-231 cells at 20 uM by Western blot analysis; assay type: cell-based; details: TDE = time-dependent effect
[13] = test system: MDA-MB-231; assay: Induction of apoptosis in human MDA-MB-231 cells assessed as cleaved caspase-7 accumulation at 20 uM after 12 hrs by Western blot analysis; assay type: functional, cell-based
[14] = Stability of the compound in DMEM media assessed as compound degradation at 25 ppm after 3 hrs by HPLC; assay type: physicochemical; details: read-out: Activity

Sequence of Mitogen-activated protein kinase 3 (Homo sapiens) (P27361 whole entry): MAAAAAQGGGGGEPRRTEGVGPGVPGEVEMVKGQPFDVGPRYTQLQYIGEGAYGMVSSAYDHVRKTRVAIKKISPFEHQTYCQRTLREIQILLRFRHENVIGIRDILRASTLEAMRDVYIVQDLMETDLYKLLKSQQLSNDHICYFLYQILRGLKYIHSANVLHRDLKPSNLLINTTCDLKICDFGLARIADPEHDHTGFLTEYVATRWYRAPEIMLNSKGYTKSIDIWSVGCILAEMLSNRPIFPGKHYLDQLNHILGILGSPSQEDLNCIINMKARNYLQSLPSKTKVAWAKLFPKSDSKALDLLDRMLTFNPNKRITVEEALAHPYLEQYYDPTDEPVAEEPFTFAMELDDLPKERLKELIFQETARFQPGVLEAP
Sequence of Mitogen-activated protein kinase 8 (Homo sapiens) (P45983 whole entry): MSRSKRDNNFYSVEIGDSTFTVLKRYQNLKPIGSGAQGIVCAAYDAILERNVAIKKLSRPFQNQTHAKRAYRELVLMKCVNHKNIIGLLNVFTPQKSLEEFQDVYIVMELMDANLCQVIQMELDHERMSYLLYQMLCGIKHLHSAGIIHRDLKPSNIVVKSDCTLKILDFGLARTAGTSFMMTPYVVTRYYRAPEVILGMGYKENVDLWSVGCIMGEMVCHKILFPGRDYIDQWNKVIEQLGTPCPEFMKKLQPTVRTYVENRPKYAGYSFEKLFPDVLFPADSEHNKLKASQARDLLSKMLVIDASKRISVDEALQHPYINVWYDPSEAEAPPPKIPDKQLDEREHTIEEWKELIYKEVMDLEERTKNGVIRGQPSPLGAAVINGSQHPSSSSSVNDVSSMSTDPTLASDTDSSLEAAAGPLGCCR
Sequence of Mitogen-activated protein kinase 9 (Homo sapiens) (P45984 whole entry, looked up): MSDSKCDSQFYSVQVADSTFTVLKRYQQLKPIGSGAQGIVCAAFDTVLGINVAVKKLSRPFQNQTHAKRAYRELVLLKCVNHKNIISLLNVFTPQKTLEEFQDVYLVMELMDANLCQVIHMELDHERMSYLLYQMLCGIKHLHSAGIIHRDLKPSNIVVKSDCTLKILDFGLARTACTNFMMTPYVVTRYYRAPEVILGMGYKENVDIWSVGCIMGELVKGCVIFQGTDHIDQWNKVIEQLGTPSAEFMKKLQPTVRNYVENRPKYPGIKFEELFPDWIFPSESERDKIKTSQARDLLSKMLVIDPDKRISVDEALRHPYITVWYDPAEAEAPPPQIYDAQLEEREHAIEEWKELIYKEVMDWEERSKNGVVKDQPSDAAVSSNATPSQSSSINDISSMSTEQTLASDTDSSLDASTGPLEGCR
Sequence of Mitogen-activated protein kinase 1 (Homo sapiens) (P28482 whole entry): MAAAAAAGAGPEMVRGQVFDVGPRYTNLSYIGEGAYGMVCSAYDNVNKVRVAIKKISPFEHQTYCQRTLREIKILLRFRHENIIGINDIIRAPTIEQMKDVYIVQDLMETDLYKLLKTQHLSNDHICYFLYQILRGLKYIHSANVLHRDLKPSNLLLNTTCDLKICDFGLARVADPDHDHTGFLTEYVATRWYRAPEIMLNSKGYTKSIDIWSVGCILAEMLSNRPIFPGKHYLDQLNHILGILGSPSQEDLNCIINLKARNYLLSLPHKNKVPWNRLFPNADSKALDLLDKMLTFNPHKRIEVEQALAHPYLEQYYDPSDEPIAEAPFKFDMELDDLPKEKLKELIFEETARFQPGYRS

SMILES	Activity [1]	Activity [2]	Activity [3]	Activity [4]	Activity [5]	Activity [6]	Activity [7]	Activity [8]	Activity [9]	Activity [10]	Activity [11]	Activity [12]	Activity [13]	degraded at 3 h, 25 ppm [14] [%]
O=c1c(O)c(-c2ccc(O)c(O)c2)oc2cc(O)cc(O)c12 [QUERCETIN]	Active	Active	inactive	inactive	inactive	inactive	inactive	tde	tde	tde	tde	tde	Active	60
COc1cc(O)c2c(=O)c(O)c(-c3ccc(O)c(O)c3)oc2c1 [RHAMNETIN]	Active	Active	inactive	inactive	inactive	inactive	inactive	tde	tde	tde	tde	tde	Active	4
